The values below come from publication doi:10.1101/2022.07.18.500363v1 (biorxiv, 2022).

Read-outs that look alike come from different tables or passages of the source.

The target of this experiment is PL^pro (papain-like protease, domain of nsp3) (Severe acute respiratory syndrome coronavirus 2, UniProt P0DTD1). Kind of experiment: fluorogenic short peptide protease assay, 384-well. It counts as biochemical.

With `CC1=NN(c2ccc(C)c(C)c2)C(=O)/C1=N/Nc1cccc(-c2cccc(-c3nnn[nH]3)c2)c1O` [DDL-713, thrombopoietin receptor agonist-1], where the note is “read-out: IC50PLpro, short peptide substrate, 37 °C, 10-60 min preincubation”, the IC50 is about 54 µM.
In turn, `CC1=NN(c2ccc(C)c(C)c2)C(=O)C1=NNc1cccc(-c2cccc(C(=O)O)c2)c1O` [DDL-701, eltrombopag] came in with an IC50 of 13 µM.
As for `COc1cc(C(=O)NS(=O)(=O)c2ccccc2C)ccc1Cc1cn(C)c2ccc(NC(=O)OC3CCCC3)cc12` [DDL-715, zafirlukast], the IC50 is about 24 µM.
